In patent publication US8283358B2, “N-sulfonamido polycyclic pyrazolyl compounds” (Elan Pharmaceuticals, Inc., priority 2008, dated 2012) one finds IC50 data, which are given here for 53 compounds.

Molecules are shown by their SMILES. Some results are limits rather than exact numbers.

As usually defined, the IC50 is the concentration at which inhibition is half-maximal.

In one assay the target is T1, gamma-secretase (partially purified extract of IMR-32 cell membranes; substrate MBP-C125 Swe fusion protein, cleavage at the Aβ40 site) (Homo sapiens, UniProt P49768).
T1 construct: a partially purified extract of IMR-32 cell membranes as the gamma-secretase enzyme preparation; endogenous in cells; host or cells: IMR-32 cell membranes, partially purified extract
As to the kind of experiment: Gamma-secretase APP enzyme assay (Example A). The conditions noted are these: class symbols; assay described in Example A; read-out: γAPP IC50. Format: biochemical. The text has this: The gamma-secretase APP enzyme assay was designed to measure the specific proteolytic cleavage of an APP substrate (MBP-C125 Swe fusion protein) at the Aβ40 site. […] This assay involved two steps beginning with the enzymatic reaction generating a cleavage product that was captured with an immobilized antibody specific for the neo-epitope Aβ40 site. The captured cleavage product was then detected in a sandwich ELISA assay with a biotinylated reporter antibody that is specific to Aβ(17-28). Streptavidin-linked alkaline phosphatase was then added that would generate a fluorescent signal proportional to the amount of cleavage product.
This warmed solution of BigCHAPS (N,N-Bis(3-D-gluconamidopropyl)cholamide) detergent was used to dissolve Brain Extract Type-V (lipid containing a minimum of 40% phosphatidylethanolamine) from Sigma (St. Louis, Mo.) to a concentration of 8 mg/ml. This solution containing BigCHAPS and lipid at 8 mg/ml is then diluted to 0.53 mg/ml lipid with a pre-warmed solution of Hepes and sodium chloride.
Gamma-secretase was then added to a 96-well micro-titre plate and then incubated with various concentrations of inhibitor for 30 minutes at 37° C. MBPC125 substrate was then added to initiate the reaction that would run for two hours at 37° C. The reaction was quenched with the addition of SDS to a final concentration of 0.1% and then 100 μl of the reaction mixture was transferred to a capture ELISA plate and incubated overnight at 4° C. Detection of the cleavage product was performed using a standard sandwich ELISA assay and quantified using a six point standard curve.
For the compound `O=S(=O)(c1ccc(C(F)(F)F)cc1)N1C2Cc3[nH]ncc3C1c1ccccc12` (racemic) [compound 52], the IC50 is less than 100 nM.

Turning to `O=S(=O)(c1ccc(C(F)(F)F)cc1)N1C2C=C(c3ccc(F)cc3)C1c1cn[nH]c1C2` (racemic) [compound 59], the IC50 is 100 to 499 nM.

With `O=S(=O)(c1ccc(C(F)(F)F)cc1)N1C2Cc3[nH]ncc3C1c1ccccc12` (racemic) [compound 73], the half-maximal inhibitory concentration (IC50) is less than 100 nM.

With `O=S(=O)(c1ccc(C(F)(F)F)cc1)N1C2c3ccccc3C1C(F)(F)c1[nH]ncc12` (racemic) [compound 74], the IC50 is less than 100 nM.

Consider `Cc1cc(C2CC3Cc4[nH]ncc4C(C2)N3S(=O)(=O)c2ccc(Cl)cc2)on1` (racemic) [compound 76], for which the IC50 is less than 100 nM.

Turning to `Cc1nc(C2CC3Cc4[nH]ncc4C(C2)N3S(=O)(=O)c2ccc(C(F)(F)F)cc2)n(C)n1` (racemic) [compound 80], the IC50 is 500 to 999 nM.

On to `Cc1nc(C2CC3Cc4[nH]ncc4C(C2)N3S(=O)(=O)c2ccc(C(F)(F)F)cc2)n[nH]1` (racemic) [compound 85], for which the IC50 was more than 1000 nM.

For the compound `O=S(=O)(c1ccc(C(F)(F)F)cc1)N1C2Cc3[nH]ncc3C1c1cc3c(cc12)OCO3` (racemic) [compound 91], the IC50 is less than 100 nM.

As for `O=S(=O)(c1ccc(Cl)cc1)N1C2Cc3[nH]ncc3C1CC(c1c[nH]nn1)C2` (racemic) [compound 93], the IC50 was less than 100 nM.

On to `O=S(=O)(c1ccc(C(F)(F)F)cc1)N1C2Cc3[nH]ncc3C1c1cccc(F)c12` (racemic) [compound 97], for which the IC50 is less than 100 nM.

As to `O=S(=O)(c1ccc(C(F)(F)F)nc1)N1C2Cc3n[nH]cc3C1c1cc(F)c(F)cc12` (racemic) [compound 105], the IC50 is less than 100 nM.

Regarding `O=S(=O)(c1ccc(C(F)(F)F)cc1)N1C2Cc3[nH]ncc3C1CC(c1nnn[nH]1)C2` (racemic) [compound 126], the IC50 was more than 1000 nM.

`Cn1nncc1C1CC2Cc3[nH]ncc3C(C1)N2S(=O)(=O)c1ccc(Cl)cc1` (racemic) [compound 136]: the IC50 is less than 100 nM.

`O=C1COCCN1c1ccc(C2CC3Cc4[nH]ncc4C(C2)N3S(=O)(=O)c2ccc(C(F)(F)F)cc2)cc1` (racemic) [compound 143]: the IC50 lay in the range of 500 to 999 nM.

Regarding `O=C(O)COCCNc1ccc(C2CC3Cc4[nH]ncc4C(C2)N3S(=O)(=O)c2ccc(C(F)(F)F)cc2)cc1` (racemic) [compound 145], the IC50 is less than 100 nM.

For `O=S(=O)(c1ccc(C(F)(F)F)cc1)N1C2Cc3[nH]ncc3C1CC(c1ccc(-n3cncn3)cc1)C2` (racemic) [compound 147], the 50% inhibitory concentration (IC50) fell in the range of 100 to 499 nM.

As for `Cc1cc(F)cc2c1C1c3c[nH]nc3CC2N1S(=O)(=O)c1ccc(C(F)(F)F)nc1` (racemic) [compound 151], the IC50 is less than 100 nM.

As for `CC(=O)Nc1ccc(C2CC3Cc4[nH]ncc4C(C2)N3S(=O)(=O)c2ccc(C(F)(F)F)cc2)cc1` (racemic) [compound 152], the IC50 is less than 100 nM.

As to `O=C1CCN1c1ccc(C2CC3Cc4[nH]ncc4C(C2)N3S(=O)(=O)c2ccc(C(F)(F)F)cc2)cc1` (racemic) [compound 153], the IC50 was less than 100 nM.

Consider `CC(=O)c1ccc(C2CC3Cc4[nH]ncc4C(C2)N3S(=O)(=O)c2ccc(C(F)(F)F)cc2)cc1` (racemic) [compound 154], for which the IC50 lay within 100 to 499 nM.

As to `O=S(=O)(c1ccc(C(F)(F)F)cc1)N1C2Cc3[nH]ncc3C1c1cc(C(F)(F)F)ccc12` (racemic) [compound 155], the IC50 was less than 100 nM.

Consider `O=S(=O)(c1ccc(C(F)(F)F)cc1)N1C2Cc3[nH]ncc3C1c1ccc(C(F)(F)F)cc12` (racemic) [compound 156], for which the IC50 is less than 100 nM.

For the compound `O=S(=O)(c1ccc(C(F)(F)F)nc1)N1C2c3cc(F)c(F)cc3C1C(F)(F)c1[nH]ncc12` (racemic) [compound 157], the IC50 was less than 100 nM.

With `O=S(=O)(c1ccc(C(F)(F)F)cc1)N1C2Cc3[nH]ncc3C1c1cccc(-c3ccc(F)cc3)c1C2` (racemic) [compound 162], the IC50 was less than 100 nM.

`O=S(=O)(c1ccc(C(F)(F)F)cc1)N1C2Cc3[nH]ncc3C1Cc1ccccc12` (racemic) [compound 163]: the half-inhibitory concentration (IC50) was less than 100 nM.

Consider `O=S(=O)(c1ccc(C(F)(F)F)cc1)N1C2Cc3ccccc3C1c1cn[nH]c1C2` (racemic) [compound 164], for which the IC50 was less than 100 nM.

Consider `O=S(=O)(c1ccc(C(F)(F)F)cc1)N1C2Cc3c(-c4ccc(F)cc4)cccc3C1Cc1[nH]ncc12` (racemic) [compound 165], for which the IC50 was less than 100 nM.

`O=S(=O)(c1ccc(C(F)(F)F)nc1)N1C2Cc3[nH]ncc3C1c1cc(F)ccc12` (racemic) [compound 176]: the IC50 is less than 100 nM.

Regarding `O=S(=O)(c1ccc(C(F)(F)F)cc1)N1C2Cc3[nH]ncc3C1c1cccc(-c3cccc(C(F)(F)F)c3)c1C2` (racemic) [compound 178], the IC50 is less than 100 nM.

Take `O=S(=O)(c1ccc(C(F)(F)F)cc1)N1C2Cc3cccc(F)c3C1Cc1n[nH]cc12` (racemic) [compound 181]: the IC50 is less than 100 nM.

`O=S(=O)(c1ccc(C(F)(F)F)cc1)N1C2Cc3cccc(F)c3C1c1cn[nH]c1C2` (racemic) [compound 182]: the IC50 was less than 100 nM.

As for `COC(=O)c1ccc2c(c1)C1c3cn[nH]c3CC2N1S(=O)(=O)c1ccc(C(F)(F)F)nc1` (racemic) [compound 194], the concentration for half-maximal inhibition (IC50) is more than 1000 nM.

Consider `O=S(=O)(c1ccc(Cl)cc1)N1C2Cc3[nH]ncc3C1c1c(F)cccc12` (racemic) [compound 209], for which the 50% inhibitory concentration (IC50) is less than 100 nM.

Turning to `O=S(=O)(c1ccc(F)cc1)N1C2Cc3[nH]ncc3C1c1c(F)cccc12` (racemic) [compound 210], the IC50 was less than 100 nM.

With `O=S(=O)(c1ccc(C(F)(F)F)cn1)N1C2Cc3[nH]ncc3C1c1c(F)cccc12` (racemic) [compound 211], the IC50 was less than 100 nM.

In the case of `O=S(=O)(c1ccc(C(F)(F)F)nc1)N1C2Cc3[nH]ncc3C1c1cc(Cl)ccc12` (racemic) [compound 219], the IC50 was less than 100 nM.

As to `COC(=O)c1cccc2c1C1Cc3[nH]ncc3C2N1S(=O)(=O)c1ccc(C(F)(F)F)nc1` (racemic) [compound 220], the half-maximal inhibitory concentration (IC50) is less than 100 nM.

With `O=S(=O)(c1ccc(C(F)(F)F)nc1)N1C2Cc3[nH]ncc3C1c1cc(O)ccc12` (racemic) [compound 225], the IC50 is less than 100 nM.

Consider `COC(=O)c1cccc2c1C1Cc3[nH]ncc3C2N1S(=O)(=O)C1=CC=C(C(F)(F)F)NC1` (racemic) [compound 253], for which the IC50 is less than 100 nM.

On to `O=S(=O)(c1ccc(C(F)(F)F)nc1)N1C2Cc3[nH]ncc3C1c1cccc(CF)c12` (racemic) [compound 257], for which the half-maximal inhibitory concentration (IC50) was less than 100 nM.

With `O=C1c2[nH]ncc2C2c3cccc(Cl)c3C1N2S(=O)(=O)c1ccc(C(F)(F)F)nc1` (racemic) [compound 264], the half-maximal inhibitory concentration (IC50) was less than 100 nM.

On to `O=S(=O)(c1ccc(C(F)(F)F)nc1)N1C2Cc3[nH]ncc3C1c1cccc(-c3ccc(F)cc3)c12` (racemic) [compound 266], for which the IC50 is less than 100 nM.

Regarding `O=S(=O)(c1ccc(C(F)(F)F)nc1)N1C2Cc3[nH]ncc3C1c1cccc(C3CC3)c12` (racemic) [compound 270], the IC50 is less than 100 nM.

As for `O=S(=O)(c1ccc(C(F)(F)F)nc1)N1C2Cc3[nH]ncc3C1c1c(C3CC3)cccc12` (racemic) [compound 274], the IC50 was less than 100 nM.

Regarding `O=S(=O)(c1ccc(C(F)(F)F)cc1)N1C2Cc3[nH]ncc3C1c1cccnc12` (single isomer, unassigned) [compound 99], the IC50 was more than 1000 nM.

Take `O=S(=O)(c1ccc(C(F)(F)F)cc1)N1C2Cc3[nH]ncc3C1c1ncccc12` (single isomer, unassigned) [compound 101]: the 50% inhibitory concentration (IC50) is less than 100 nM.

For the compound `O=S(=O)(c1ccc(C(F)(F)F)cc1)N1C2Cc3[nH]ncc3C1c1ncccc12` (single isomer, unassigned) [compound 102], the IC50 lay within 500 to 999 nM.

As to `O=S(=O)(c1ccc(C(F)(F)F)nc1)N1C2Cc3n[nH]cc3C1c1cc(F)c(F)cc12` (single isomer, unassigned) [compound 110], the IC50 was more than 1000 nM.

For the compound `O=S(=O)(c1ccc(C(F)(F)F)nc1)N1C2Cc3n[nH]cc3C1c1cc(F)c(F)cc12` (single isomer, unassigned) [compound 111], the IC50 was less than 100 nM.

The assay is the same for the next values; noted with them: numeric bounds given instead of class symbols; assay described in Example A; read-out: γAPP IC50.
In the case of `O=c1oc2cc3c(cc2o1)C1c2cn[nH]c2CC3N1S(=O)(=O)c1ccc(C(F)(F)F)cc1` (racemic) [compound 109], the half-inhibitory concentration (IC50) is more than 100 nM.

With `O=S(=O)(c1ccc(C(F)(F)F)nc1)N1C2Cc3[nH]ncc3C1c1c(-c3ccc(F)cc3)cccc12` (racemic) [compound 273], the IC50 was more than 100 nM.

The same assay, now with this note: γAPP IC50 (nM), class symbols; assay described in Example A.
Regarding `Cn1ncc2c1C1Cc3[nH]ncc3C2N1S(=O)(=O)c1ccc(C(F)(F)F)nc1` (racemic) [compound 204], the IC50 is less than 100 nM.

The compound `O=S(=O)(c1ccc(C(F)(F)F)nc1)N1C2Cc3[nH]ncc3C1c1ncc(F)cc12` (racemic) [compound 258] yielded an IC50 of less than 100 nM.
